Strand notation (5' to 3'): a small letter for the sugar, then the base; units joined by * are phosphorothioate-linked, units joined directly phosphodiester-linked; [ ] holds rarer units or linkages, { } end groups; capitals alone tell only the bases. e = 2'-O-(2-methoxyethyl) (MOE); [5mC] = 5-methylcytosine; d = 2'-deoxy (DNA)
How the values were obtained:
rat JNK1 mRNA = test: Northern assay of rat JNK1 (p54?) mRNA in A10 aortic smooth muscle cells; assay type: cell-based; conditions: for inhibition of rat JNK1 mRNA levels: A10 cells (Table 20); for % EXPRESSION JNK1: A10 cells
Method: (§1) In order to study the role of JNK proteins in animal models, oligonucleotides targeted to the genes encoding JNK1, JNK2 and JNK3 of Rattus norvegicus were prepared. These oligonucleotides are 2′-methoxyethoxy, phosphodiester/2′-hydroxyl, phosphorothioate/2′-methoxyethoxy, phosphodiester “gapmers” in which every cytosine residue is 5-methylcytosine (m5c). These antisense compounds were synthesized according to the methods of the disclosure. Certain of these oligonucleotides are additionally specifically hybridizable to JNK genes from other species as indicated herein. The oligonucleotides described in this Example were tested for their ability to modulate rat JNK mRNA levels essentially according to the methods described in the preceding Examples, with the exceptions that the cell line used was rat A10 aortic smooth muscle cells (ATCC No. ATCC CRL-1476) and the probes used were specific for rat JNK1, JNK2 or JNK3 (see infra). A10 cells were grown and treated with oligonucleotides essentially as described by (Cioffi et al. Mol. Pharmacol., 1997, 51, 383).
(§2) These antisense compounds were tested for their ability to modulate levels of p54? (JNK1) and p54a (JNK2) mRNA in A10 cells via Northern assays. Due to the high degree of sequence identity between the human and rat genes, radiolabeled human JNK1 (Example 3) and JNK2 (Example 4) cDNAs functioned as specific probes for the rat homologs.

rat JNK2 mRNA = test: Northern assay of rat JNK2 (p54a) mRNA in A10 aortic smooth muscle cells; assay type: cell-based; conditions: A10 cells; for capacity to modulate both JNK1 and JNK2 (Pan JNK): rat JNK1 and JNK2 mRNA
Method: as §1, §2
These antisense compounds were tested for their ability to modulate levels of p54a (JNK2) mRNA in A10 cells using the radiolabeled human JNK2 cDNA as a probe as described supra. Oligonucleotides showing levels of inhibition from ≧ about 60% to about 100% of rat JNK2 mRNA levels include ISIS Nos. 18254, 18255, 18257, 18258, 18259, 18260 and 18265 (SEQ ID NOS: 125, 126, 128, 129, 130, 131 and 136, respectively). These oligonucleotides are preferred embodiments of the invention for modulating rat JNK2 expression. […] These oligonucleotides are thus more preferred embodiments of the invention for modulating rat JNK2 expression. ISIS 18259 (SEQ ID NO: 130) was chosen for use in further studies (infra).

[1] = rat JNK1 mRNA, oligonucleotides targeted to rat JNK1
[2] = rat JNK2 mRNA, oligonucleotides targeted to rat JNK1

| Substance | inhibition of rat JNK1 mRNA levels (rat JNK1 mRNA) | % EXPRESSION JNK1 (rat JNK1 mRNA; [1]) | % EXPRESSION JNK2 (rat JNK2 mRNA; [2]) | other results |
| --- | --- | --- | --- | --- |
| 21858 (DNA e[5mC]e[5mC]eTeGe[5mC]*dT*d[5mC]*dG*d[5mC]*dG*dG*d[5mC]*dT*d[5mC]*d[5mC]*eGe[5mC]eGeTeT; antisense) [compound 21858] | at least 90% | 8% | 89% | – |
| 21859 (DNA e[5mC]eTe[5mC]eAeT*dG*dA*dT*dG*dG*d[5mC]*dA*dA*dG*d[5mC]*eAeAeTeTeA) [compound 21859] | at least 90% | 5% | 106% | % EXPRESSION JNK1 (rat JNK1 mRNA; dose response, 10 nM): 74%; % EXPRESSION JNK1 (rat JNK1 mRNA; dose response, 50 nM): 25%; % EXPRESSION JNK1 (rat JNK1 mRNA; dose response, 100 nM): 11%; % EXPRESSION JNK1 (rat JNK1 mRNA; dose response, 200 nM): 8%; % EXPRESSION JNK2 (rat JNK2 mRNA; dose response, 10 nM): 101%; % EXPRESSION JNK2 (rat JNK2 mRNA; dose response, 50 nM): 98%; % EXPRESSION JNK2 (rat JNK2 mRNA; dose response, 100 nM): 99%; % EXPRESSION JNK2 (rat JNK2 mRNA; dose response, 200 nM): 101% |
| 21860 (DNA eTeGeTeTeG*dT*d[5mC]*dA*d[5mC]*dG*dT*dT*dT*dA*d[5mC]*eTeTe[5mC]eTeG; antisense) [compound 21860] | at least 90% | 8% | 98% | – |
| 21861 (DNA e[5mC]eGeGeTeA*dG*dG*d[5mC]*dT*d[5mC]*dG*d[5mC]*dT*dT*dA*eGe[5mC]eAeTeG; antisense) [compound 21861] | at least 90% | 6% | 13% | capacity to modulate both JNK1 and JNK2 (Pan JNK) (rat JNK2 mRNA): demonstrated a capacity to modulate both JNK1 and JNK2 |
| 21862 (DNA e[5mC]eTeAeGeG*dG*dA*dT*dT*dT*d[5mC]*dT*dG*dT*dG*eGeTeGeTeG; antisense) [compound 21862] | at least 90% | 6% | 133% | – |
| 21863 (DNA e[5mC]eAeGe[5mC]eA*dG*dA*dG*dT*dG*dA*dA*dG*dG*dT*eGe[5mC]eTeTeG; antisense) [compound 21863] | – | 24% | 107% | – |
| 21864 (DNA eTe[5mC]eGeTeT*d[5mC]*d[5mC]*dT*dG*d[5mC]*dA*dG*dT*d[5mC]*d[5mC]*eTeTeGe[5mC]e[5mC]; antisense) [compound 21864] | at least 90% | 8% | 106% | – |
| 21865 (DNA e[5mC]e[5mC]eAeTeT*dT*d[5mC]*dT*d[5mC]*d[5mC]*d[5mC]*dA*dT*dA*dA*eTeGe[5mC]eAe[5mC]; antisense) [compound 21865] | at least 90% | 5% | 50% | – |
| 21866 (DNA eTeGeAeAeT*dT*d[5mC]*dA*dG*dG*dA*d[5mC]*dA*dA*dG*eGeTeGeTeT; antisense) [compound 21866] | at least 90% | 8% | 98% | – |
| 21867 (DNA eAeGe[5mC]eTeT*d[5mC]*dG*dT*d[5mC]*dT*dA*d[5mC]*dG*dG*dA*eGeAeTe[5mC]e[5mC]; antisense) [compound 21867] | at least 90% | 5% | 21% | capacity to modulate both JNK1 and JNK2 (Pan JNK) (rat JNK2 mRNA): demonstrated a capacity to modulate both JNK1 and JNK2 |
| 21868 (DNA e[5mC]eAe[5mC]eTe[5mC]*d[5mC]*dT*d[5mC]*dT*dA*dT*dT*dG*dT*dG*eTeGe[5mC]eTe[5mC]; antisense) [compound 21868] | – | 15% | 112% | – |
| 21869 (DNA eGe[5mC]eTeGe[5mC]*dA*d[5mC]*d[5mC]*dT*dA*dA*dA*dG*dG*dA*eGeAe[5mC]eGeG; antisense) [compound 21869] | – | 30% | 93% | – |
| 21870 (DNA e[5mC]e[5mC]eAeGeA*dG*dT*d[5mC]*dG*dG*dA*dT*d[5mC]*dT*dG*eTeGeGeAe[5mC]; antisense) [compound 21870] | – | 11% | 87% | – |

Reference: US20040029823A1, “Antisense oligonucleotide compositions and methods for the modulation of JNK proteins” (priority 1997, published 2004)
